Experimental data as given in PMC11850249, “Typical and atypical metabolic characteristics of three iridaceae isoflavone components: in vitro and in silico studies” (Frontiers in Pharmacology, 2025).
“And” between values parts separate entries of the source, which are not always exact repeats. Identical values can stand only once. Like-named read-outs stand apart in the source and are kept apart here. Blank lines part the entries; values can stand above or below the molecule they belong to.

Key:
[1] = system: recombinant CYP enzymes (CYP1A2, CYP2A6, CYP2C8, CYP2C9, CYP2C19, CYP2D6, CYP2E1, CYP3A4); assay: Reaction phenotyping with recombinant CYP enzymes; type: in vitro ADME, human
Experimental: To assess the role of CYP enzymes to isoflavone metabolism, tectorigenin, irigenin, or irisflorentin (100 μM) was co-incubated with 25 pmol of recombinant CYP enzymes (CYP1A2, CYP2A6, CYP2C8, CYP2C9, CYP2C19, CYP2D6, CYP2E1, and CYP3A4) and MgCl2 (10 mM) in Tris-HCl buffer. The samples were pre-incubated at 37°C for 5 min, and the reaction was initiated by the addition of NADPH. After 30 min of incubation, the supernatant obtained by centrifugation after adding methanol to the incubated sample was analyzed by HPLC. All experiments were carried out in triplicate.

CYP2C19 = biological target: T1, CYP2C19 (Homo sapiens, UniProt P33261); assay: Enzyme kinetics with recombinant CYP2C19; type: in vitro ADME
T1 construct: purchased CYPEX (Dundee, United Kingdom)
T1 sequence (P33261 whole entry): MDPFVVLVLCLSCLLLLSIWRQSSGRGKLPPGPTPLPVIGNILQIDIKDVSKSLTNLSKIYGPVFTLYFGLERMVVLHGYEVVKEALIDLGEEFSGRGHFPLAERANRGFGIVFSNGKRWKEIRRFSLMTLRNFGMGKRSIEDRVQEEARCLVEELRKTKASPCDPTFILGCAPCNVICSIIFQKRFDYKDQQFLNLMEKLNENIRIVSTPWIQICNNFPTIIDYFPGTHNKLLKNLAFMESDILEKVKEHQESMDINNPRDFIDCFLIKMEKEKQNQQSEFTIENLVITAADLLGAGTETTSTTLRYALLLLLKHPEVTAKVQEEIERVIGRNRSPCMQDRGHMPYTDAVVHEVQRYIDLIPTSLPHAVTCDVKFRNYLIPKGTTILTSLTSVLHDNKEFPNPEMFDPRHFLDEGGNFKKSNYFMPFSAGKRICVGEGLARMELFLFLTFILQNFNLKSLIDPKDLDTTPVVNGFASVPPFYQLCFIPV
Experimental: (§1) A series of concentrations (1–300 μM) of tectorigenin, irigenin, or irisflorentin were added to HLMs or recombinant enzymes. Nonlinear regression was performed on the substrate concentration and generation rate of metabolites to investigate the enzymatic kinetic characteristics of these components in the metabolic system. All experiments were carried out in triplicate.
(§2) A Waters AQUITY UPLC system (Waters, Milford, MA, United States) equipped with a Dikma ODS C18 column (150 × 4.6 mm, 5 μm) was used for separation at 30°C. The binary mobile phase consisted of A (an aqueous solution containing 0.1% acetic acid and 2 mM ammonium acetate) and B (acetonitrile) at a flow rate of 1 mL/min. […] The concentrations of the metabolites were calculated using a standard curve of the substrates.
(§3) GraphPad Prism software 5.0 was used to perform non-linear fitting between the metabolite generation rate (V) and substrate concentration [S]. The appropriateness of the enzyme kinetic model was determined using R ^2 and the Eadie-Hofstee fit. […] Intrinsic clearance (Clint) was calculated according to Equation 3 (for the Michaelis–Menten model) and Equation 4 (for the sigmoidal kinetics model). All data are expressed as mean ± Standard Error (SE). […]

[2] = system: human liver microsomes (HLMs); assay: Enzyme kinetics in HLMs; type: in vitro ADME; conditions: for Km: n = 3, read-out: Km for metabolite formation
Experimental: as §1
(§4) A Waters AQUITY UPLC system (Waters, Milford, MA, United States) equipped with a Dikma ODS C18 column (150 × 4.6 mm, 5 μm) was used for separation at 30°C. The binary mobile phase consisted of A (an aqueous solution containing 0.1% acetic acid and 2 mM ammonium acetate) and B (acetonitrile) at a flow rate of 1 mL/min. The elution settings were as follows: 0 → 5 min: 10% B → 20% B; 5 min → 20 min: 20% B → 50% B; 20 min → 21 min: 50% B → 60% B; 21 min → 25 min: 60% B → 90% B; 25 min → 25.1 min 90%–10% B; 25.1 min → 30 min 10% B. Flow rate: 1 mL/min 260 nm was used as the detection wavelength. Calibration standard curves were generated using a reaction mixture containing tectorigenin, irigenin, or irisflorentin at a concentration range of 0.03–10 µM. The concentrations of the metabolites were calculated using a standard curve of the substrates.
(§5) GraphPad Prism software 5.0 was used to perform non-linear fitting between the metabolite generation rate (V) and substrate concentration [S]. The appropriateness of the enzyme kinetic model was determined using R ^2 and the Eadie-Hofstee fit. The maximum metabolic rate (Vmax) and Michaelis constant (Km) were obtained for kinetic processes that conformed to the Michaelis–Menten model (Equation 1). For kinetic processes that conform to the sigmoidal kinetics model (Equation 2), Vmax, Hill coefficient (n), and S50, concentrations at 50% Vmax were obtained. Intrinsic clearance (Clint) was calculated according to Equation 3 (for the Michaelis–Menten model) and Equation 4 (for the sigmoidal kinetics model). All data are expressed as mean ± Standard Error (SE). One - way analysis of variance was used to compare the differences between different groups. A p-value below 0.05 was regarded as statistically significant. V=VmaxS/Km+S (1) V=Vmax+C^n/S50n+C^n (2) Clint=Vmax/Km (3) Clint=Vmax/S50×n−1/nn−1^1/n (4)

CYP isoenzymes in HLMs = assay: Inhibition by chemical CYP inhibitors in HLMs; type: in vitro ADME, human
Experimental: To investigate the role of specific CYP subtypes in metabolism, tectorigenin, irigenin, or irisflorentin (100 μM) was co-incubated with HLMs (0.5 mg protein/mL), NADPH (1 mM), and MgCl2 (10 mM) in the presence of known CYP inhibitors. The inhibitors used were α-Naph (20 μM) for CYP1A2 ([Zhang Y. J. et al., 2021]), Tryp (2 μM) for CYP2A6 ([Rodríguez-Morató et al., 2017]), Spz (10 μM) for CYP2C9 ([Berger et al., 2018]), Ticlo (2 μM) for CYP2B6 and 2C19 ([Yang et al., 2019]), Qd (8 μM) for CYP2D6 ([Martin et al., 2022]), DDC (100 μM) for CYP2E1 ([Zhang X. et al., 2021]), and KCZ (1 μM) for CYP3A4 ([Berger et al., 2018]). Finally, the samples obtained by centrifugation after adding ice-cold methanol to the incubated samples were analyzed using HPLC. Samples without inhibitors were used as controls to calculate the inhibition rates. Each inhibitor group and the control group were compared. All experiments were carried out in triplicate.

rat liver microsomes = system: rat liver microsomes; set-up: method as in Zhang Y. J. et al., 2021; conditions: ref Zhang Y. J. et al., 2021; cited from earlier work
CYP1A2 = biological target: T2, CYP1A2 (Homo sapiens, UniProt P05177); assay: Enzyme kinetics with recombinant CYP1A2; type: in vitro ADME
T2 construct: purchased CYPEX (Dundee, United Kingdom)
T2 sequence (P05177 1-516): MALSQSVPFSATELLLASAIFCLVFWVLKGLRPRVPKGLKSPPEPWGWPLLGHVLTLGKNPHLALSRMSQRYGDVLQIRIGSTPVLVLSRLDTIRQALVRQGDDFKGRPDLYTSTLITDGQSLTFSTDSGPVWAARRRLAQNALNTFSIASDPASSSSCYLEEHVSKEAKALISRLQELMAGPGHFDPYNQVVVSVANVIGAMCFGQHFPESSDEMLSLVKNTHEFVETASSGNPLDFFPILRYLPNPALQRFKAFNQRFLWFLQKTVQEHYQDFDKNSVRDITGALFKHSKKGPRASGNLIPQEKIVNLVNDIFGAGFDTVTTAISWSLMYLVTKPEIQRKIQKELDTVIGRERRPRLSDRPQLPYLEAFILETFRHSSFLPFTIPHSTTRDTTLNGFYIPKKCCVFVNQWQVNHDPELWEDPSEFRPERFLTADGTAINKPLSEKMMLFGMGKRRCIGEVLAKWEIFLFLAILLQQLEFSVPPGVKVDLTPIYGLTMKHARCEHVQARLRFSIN
Experimental: as §1, §2, §3

[3] = system: human liver microsomes (HLMs); assay: Metabolic stability and metabolite identification in HLMs; type: in vitro ADME; conditions: 30 min
Experimental: To analyze the metabolic stability, a phase I metabolic system was established. Tectorigenin, irigenin, or irisflorentin (100 μM) was pre-incubated at 37°C with Tris-HCl buffer solution (50 mM), MgCl2 (10 mM), and HLMs (0.5 mg protein/mL). After 5 min, NADPH (1 mM) was added to start the metabolic reactions. After incubation for 30 min, an equal volume of methanol was added to terminate the reaction. After centrifugation, the supernatant was used for metabolite analysis. By comparing the high-performance liquid chromatography (HPLC) chromatograms of the samples incubated for 0 and 30 min to determine the generation of metabolites, mass spectrometry information for the metabolites was obtained using an UPLC-linear ion Trap-Orbitrap Mass Spectrometry method.
A UPLC system coupled with an LTQ-Orbitrap mass spectrometer (Thermo Fisher Scientific, Waltham, MA, United States) was used. The mass spectrometer was equipped with an electrospray ionization source operating in negative ion mode for tectorigenin and irigenin, and in positive ion mode for irisflorentin. The following parameter settings were used: sheath gas flow rate, 45 arb; auxiliary gas flow rate, 15 arb; capillary temperature, 350°C; spray voltage, 3.8 kV; and heating component temperature, 300°C. Xcalibur software (Thermo Fisher Scientific) was employed to acquire and process the data.

CYP2E1 = biological target: T3, CYP2E1 (Homo sapiens, UniProt P05181); assay: Enzyme kinetics with recombinant CYP2E1; type: in vitro ADME
T3 construct: purchased CYPEX (Dundee, United Kingdom)
T3 sequence (P05181 whole entry): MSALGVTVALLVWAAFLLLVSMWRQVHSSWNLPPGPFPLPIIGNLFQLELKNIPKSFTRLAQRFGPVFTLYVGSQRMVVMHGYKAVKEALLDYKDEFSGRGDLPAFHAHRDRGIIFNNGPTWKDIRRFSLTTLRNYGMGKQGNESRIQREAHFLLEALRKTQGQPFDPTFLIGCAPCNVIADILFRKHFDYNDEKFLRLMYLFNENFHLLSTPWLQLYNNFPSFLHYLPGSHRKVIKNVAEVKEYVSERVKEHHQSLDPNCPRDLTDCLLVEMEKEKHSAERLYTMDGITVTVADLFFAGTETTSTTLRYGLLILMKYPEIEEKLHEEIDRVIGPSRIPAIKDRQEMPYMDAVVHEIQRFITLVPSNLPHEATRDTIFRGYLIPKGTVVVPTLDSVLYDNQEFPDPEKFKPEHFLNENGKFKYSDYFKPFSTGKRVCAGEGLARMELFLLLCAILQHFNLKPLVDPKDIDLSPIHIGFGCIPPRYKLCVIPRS
Experimental: as §1, §2, §3

CYP3A4 = biological target: T4, CYP3A4 (Homo sapiens, UniProt P08684); assay: Enzyme kinetics with recombinant CYP3A4; type: in vitro ADME
T4 construct: purchased CYPEX (Dundee, United Kingdom)
T4 sequence (P08684 whole entry): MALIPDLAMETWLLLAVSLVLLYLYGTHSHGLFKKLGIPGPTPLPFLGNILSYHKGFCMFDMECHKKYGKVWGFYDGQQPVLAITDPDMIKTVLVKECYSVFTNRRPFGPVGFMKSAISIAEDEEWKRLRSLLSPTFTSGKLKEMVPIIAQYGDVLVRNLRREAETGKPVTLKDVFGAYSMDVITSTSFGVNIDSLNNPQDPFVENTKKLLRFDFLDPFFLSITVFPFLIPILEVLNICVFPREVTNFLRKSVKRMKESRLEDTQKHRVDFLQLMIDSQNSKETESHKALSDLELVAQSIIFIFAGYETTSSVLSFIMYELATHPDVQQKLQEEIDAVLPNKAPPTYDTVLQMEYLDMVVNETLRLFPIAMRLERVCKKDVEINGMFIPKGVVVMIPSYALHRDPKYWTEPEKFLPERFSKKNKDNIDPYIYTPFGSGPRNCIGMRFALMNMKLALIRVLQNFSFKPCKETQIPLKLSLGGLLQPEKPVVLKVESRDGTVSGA
Experimental: as §1, §2, §3

Enzyme kinetics in HLMs = type: in vitro ADME, human; conditions: human, human liver microsomes, calculated from Vmax and Km or S50, read-out: Clint for metabolite formation
Experimental: as §1, §4, §5

[4] = Michaelis-Menten model, mean ± SE

Compound: COc1cc(-c2coc3cc(O)c(OC)c(O)c3c2=O)cc(O)c1OC [Irigenin]
recombinant CYP subtypes that catalyze metabolite formation ([1]; 100 μM substrate, 25 pmol recombinant CYP, 30 min, eight subtypes measured): CYP3A4, CYP2C9, and CYP2C19 | metabolism by CYP2C19 relative to CYP2C9 and CYP3A4 ([1]; recombinant enzymes, CYP2C19 vs CYP2C9 and CYP3A4): 10–29 times | Clint (CYP2C19): 0.5 μL/min/pmol CYP | enzyme kinetic model (Eadie-Hofstee plot) [2]: Michaelis–Menten equation | Vmax for metabolite formation ([2]; Michaelis-Menten model, mean ± SE, n = 3): 263 ± 13.6 pmol/min/mg | Km [2, 4]: 17.5 ± 3.2 µM | effect of Ticlo on metabolite formation (in words) (CYP isoenzymes in HLMs): significantly inhibited

Hill coefficient (CYP1A2; recombinant CYP1A2, sigmoidal kinetics): 1.5 ± 0.1 and 1.5 | Clint (CYP1A2; recombinant CYP1A2, sigmoidal kinetics model): 1.5 μL/min/pmol CYP | metabolism by CYP1A2 relative to CYP2C9, CYP2C19 and CYP3A4 ([1]; human, 30 min, 100 μM): 21–55 times | recombinant CYP subtypes that catalyze metabolite formation ([1]; human, 30 min, 100 μM): CYP1A2, CYP2C19, and CYP3A4 | enzyme kinetic model (Eadie-Hofstee plot) [2]: sigmoidal kinetics characteristic | Vmax for metabolite formation ([2]; mean ± SE, n = 3): 235.4 ± 3.2 pmol/min/mg protein | Hill coefficient (n) ([2]; sigmoidal kinetics model): 1.8 ± 0.1 | S50 ([2]; sigmoidal kinetics model, mean ± SE, n = 3): 32.9 ± 1.0 µM | effect of Ticlo on metabolite formation (in words) (CYP isoenzymes in HLMs): no effect or a weak inhibitory effect | effect of α-Naph on metabolite formation (in words) (CYP isoenzymes in HLMs): strong inhibition
Compound: COc1cc(-c2coc3cc4c(c(OC)c3c2=O)OCO4)cc(OC)c1OC [Irisflorentin]
Hill coefficient (rat liver microsomes): 1.48 | major metabolite after incubation with HLMs ([3]; human, 100 μM): 6,7-dihydroxy-5,3′,4′,5′-tetramethoxy isoflavone

Clint (CYP2E1): 0.2 μL/min/pmol CYP | production of metabolites by CYP2E1 and CYP3A4 relative to the other subtypes ([1]; human, 30 min, 100 μM): 3–38 times | recombinant CYP subtypes that catalyze metabolite formation ([1]; human, 30 min, 100 μM): CYP1A2, CYP2C19, CYP2E1, and CYP3A4 | Clint (CYP3A4): 0.2 μL/min/pmol CYP | major metabolite after incubation with HLMs ([3]; 100 μM substrate, HLMs 0.5 mg protein/mL, NADPH 1 mM): hydroxylation metabolite of tectorigenin | microsomal CLint (Enzyme kinetics in HLMs): 2.6 µL/min/mg | enzyme kinetic model (Eadie-Hofstee plot) [2]: Michaelis–Menten equation | Km [2, 4]: 106 ± 7.3 µM | Vmax for metabolite formation ([2]; mean ± SE, n = 3): 275.9 ± 7.6 pmol/min/mg protein | effect of Ticlo on metabolite formation (in words) (CYP isoenzymes in HLMs; inhibitor Ticlo (CYP2B6 and 2C19 inhibitor), HLMs): no effect or a weak inhibitory effect | effect of α-Naph on metabolite formation (in words) (CYP isoenzymes in HLMs; inhibitor α-Naph (CYP1A2 inhibitor), HLMs): slight inhibition
Compound: COc1c(O)cc2occ(-c3ccc(O)cc3)c(=O)c2c1O [Tectorigenin]
